Values joined by “and” are separate entries in the source; they are usually repeats but may differ in a detail not shown here. Equal entries are not always repeated.
Test system: 997726-040-R-J2-PDC tumor spheroids, viability
Test: Anticancer human tumor 997726-040-R-J2-PDC patient-derived squamous cell lung carcinoma cell line growth inhibition [PI3K]
Conditions: spheroids with HUVEC and MSC; for viability, T/C: stronger effect = lower value; active = viability on the fitted dose curve at most 10% of control; inactive = the rest
Method in brief: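 Multi-cell spheroids combine tumor cells with HUVEC and human MSCs, treated with targeted agents alone or with inavolisib, alpelisib, duvelisib or copanlisib. Concentrations fall in half-log steps from at or near clinical Cmax, or from 10 microM where Cmax is unknown; viability read-out.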

[1] = curve of first compound, second compound 0.0316 µM
[2] = curve of first compound, second compound 0.1 µM
[3] = curve of first compound, second compound 0.316 µM
[4] = curve of first compound, second compound 1 µM
[5] = second compound 0.0316 µM, first compound 0.0316 µM
[6] = second compound 0.0316 µM, first compound 0.1 µM
[7] = second compound 0.0316 µM, first compound 0.316 µM
[8] = second compound 0.0316 µM, first compound 1 µM
[9] = second compound 0.0316 µM, first compound 3.16 µM
[10] = second compound 0.0316 µM, first compound 10 µM
[11] = second compound 0.1 µM, first compound 0.0316 µM
[12] = second compound 0.1 µM, first compound 0.1 µM
[13] = second compound 0.1 µM, first compound 0.316 µM
[14] = second compound 0.1 µM, first compound 1 µM
[15] = second compound 0.1 µM, first compound 3.16 µM
[16] = second compound 0.1 µM, first compound 10 µM
[17] = second compound 0.316 µM, first compound 0.0316 µM
[18] = second compound 0.316 µM, first compound 0.1 µM
[19] = second compound 0.316 µM, first compound 0.316 µM
[20] = second compound 0.316 µM, first compound 1 µM
[21] = second compound 0.316 µM, first compound 3.16 µM
[22] = second compound 0.316 µM, first compound 10 µM
[23] = second compound 1 µM, first compound 0.0316 µM
[24] = second compound 1 µM, first compound 0.1 µM
[25] = second compound 1 µM, first compound 0.316 µM
[26] = second compound 1 µM, first compound 1 µM
[27] = second compound 1 µM, first compound 3.16 µM
[28] = second compound 1 µM, first compound 10 µM
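Also: spheroids exposed to compounds for seven days before readout.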

CC(Cn1ccc(-c2ccc(C#N)c(Cl)c2)n1)NC(=O)c1cc(C(C)O)[nH]n1 (stereo unspecified) + CC(Nc1ncnc2nc[nH]c12)c1cc2cccc(Cl)c2c(=O)n1-c1ccccc1
inactive: viability, T/C [5] 100% | viability, T/C [6] 88.5% | viability, T/C [7] 104% | viability, T/C [8] 109% | viability, T/C [9] 100% | viability, T/C [10] 105% | viability, T/C [11] 108% | viability, T/C [12] 100% | viability, T/C [13] 109% | viability, T/C [14] 96.4% | viability, T/C [15] 116% | viability, T/C [16] 108% | viability, T/C [17] 94.3% | viability, T/C [18] 92.1% | viability, T/C [19] 95.1% | viability, T/C [20] 92.6% | viability, T/C [21] 101% | viability, T/C [22] 98.2% | viability, T/C [23] 93.9% | viability, T/C [24] 88.4% | viability, T/C [25] 91.6% | viability, T/C [26] 87.2% | viability, T/C [27] 91.5% | viability, T/C [28] 88.2% | viability, T/C (second compound 3.16 µM, first compound 0.0316 µM) 78.1% | viability, T/C (second compound 3.16 µM, first compound 0.1 µM) 70.5% | viability, T/C (second compound 3.16 µM, first compound 0.316 µM) 71.2% | viability, T/C (second compound 3.16 µM, first compound 1 µM) 68.9% | viability, T/C (second compound 3.16 µM, first compound 3.16 µM) 80.9% | viability, T/C (second compound 3.16 µM, first compound 10 µM) 72.5% | viability, T/C (second compound 10 µM, first compound 0.0316 µM) 51.5% | viability, T/C (second compound 10 µM, first compound 0.1 µM) 56.2% | viability, T/C (second compound 10 µM, first compound 0.316 µM) 48.9% | viability, T/C (second compound 10 µM, first compound 1 µM) 53.7% | viability, T/C (second compound 10 µM, first compound 3.16 µM) 51.5% | viability, T/C (second compound 10 µM, first compound 10 µM) 52.8%
> 10 µM: IC50 [1] | IC50 [2] | IC50 [3] | IC50 [4] | IC50 (curve of first compound, second compound 3.16 µM) | IC50 (curve of first compound, second compound 10 µM)

C#Cc1c(F)ccc2cc(O)cc(-c3ncc4c(N5CC6CCC(C5)N6)nc(OCC56CCCN5CC(F)C6)nc4c3F)c12 (stereo unspecified) + COc1c(OCCCN2CCOCC2)ccc2c3n(c(=NC(=O)c4cnc(N)nc4)nc12)CCN3
inactive: viability, T/C (second compound 0.00316 µM, first compound 0.0316 µM) 73.6% | viability, T/C (second compound 0.00316 µM, first compound 0.1 µM) 74.5% | viability, T/C (second compound 0.00316 µM, first compound 0.316 µM) 69.3% | viability, T/C (second compound 0.00316 µM, first compound 1 µM) 76% | viability, T/C (second compound 0.00316 µM, first compound 3.16 µM) 72% | viability, T/C (second compound 0.00316 µM, first compound 10 µM) 58.5% | viability, T/C (second compound 0.01 µM, first compound 0.0316 µM) 63.7% | viability, T/C (second compound 0.01 µM, first compound 0.1 µM) 57.6% | viability, T/C (second compound 0.01 µM, first compound 0.316 µM) 55.5% | viability, T/C (second compound 0.01 µM, first compound 1 µM) 57.2% | viability, T/C (second compound 0.01 µM, first compound 3.16 µM) 51.3% | viability, T/C (second compound 0.01 µM, first compound 10 µM) 47.1% | viability, T/C [5] 36.1% | viability, T/C [6] 35% | viability, T/C [7] 30% | viability, T/C [8] 32.6% | viability, T/C [9] 28.7% | viability, T/C [10] 27.7% | viability, T/C [11] 23% | viability, T/C [12] 21.7% | viability, T/C [13] 20.9% | viability, T/C [14] 22.2% | viability, T/C [15] 20.1% | viability, T/C [16] 17.6%
< 0.0316 µM: IC50 [1] | IC50 [2] | IC50 [3] | IC50 [4]
5.11 µM: IC50 (curve of first compound, second compound 0.01 µM)
active: viability, T/C [17] 4.68% | viability, T/C [18] 5.65% | viability, T/C [19] 4.53% | viability, T/C [20] 4.98% | viability, T/C [21] 4.96% | viability, T/C [22] 3.97% | viability, T/C [23] 1.7% | viability, T/C [24] 1.08% | viability, T/C [25] 1.16% | viability, T/C [26] 0.96% | viability, T/C [27] 0.92% | viability, T/C [28] 0.86%
> 10 µM: IC50 (curve of first compound, second compound 0.00316 µM)

CC(Nc1ncnc2nc[nH]c12)c1cc2cccc(Cl)c2c(=O)n1-c1ccccc1 (stereo unspecified)
> 10 µM and 9.01 µM: IC50 (compound alone, run of 06/13/2023)
inactive: viability, T/C (compound 0.0316 µM) 106% [middle of 8 runs] | viability, T/C (compound 0.1 µM) 99.4% [middle of 8 runs] | viability, T/C (compound 0.316 µM) 94.3% [middle of 8 runs] | viability, T/C (compound 1 µM) 86.6% [middle of 8 runs] | viability, T/C (compound 3.16 µM) 70.8% [middle of 8 runs] | viability, T/C (compound 10 µM) 54.7% [middle of 8 runs]

— PubChem BioAssay AID1963964 (Molecular Pharmacology Branch, DTP, NCI, 2024)
